# Reference: patent publication US10953012B2, “Heterocyclic compounds for the inhibition of pask” (BioEnergenix LLC, priority 2011, dated 2021)
# pIC50: −log10 of the molar value.
# Biological target: PASK (Homo sapiens (Human), UniProt Q96RG2)
# Assay: PAS Kinase FRET Assay
# Type: biochemical
# Details: TR-FRET assay; read-out: IC50 Kinase Domain
# From the text: The aim of the FRET assay is to determine the inhibition potential of test compounds on targeted kinase. This assay platform provides a homogenous screening method for measuring kinase activity by quantitating the amount of phospho-substrate in solution following a kinase reaction.
# In the presence of kinase and ATP, the Ulight-peptide is phosphorylated and captured by an anti-phospho-substrate antibody, which brings the Eu chelate donor and Ulight acceptor dyes into close proximity. Upon excitation at 340 nm, the Eu chelate transfers its energy to the Ulight dye, resulting in a fluorescent light emission at 665 nm
# Titration of kinase at 1 mM ATP was achieved via the following protocol. After making serial three-fold dilutions of PASK (Invitrogen) in reaction buffer across the plate; 5 μl of kinase dilution and 5 μl substrate/ATP mix were added to the wells of the white Optiplate-384 (PerkinElmer). The contents of the plate were and incubated at RT for 1 h. The reaction was stopped by adding 5 μl of stop solution to each test well followed by mixing and incubation at RT for 10 minutes. 5 μl of detection mix (detection antibody diluted in detection buffer) was added; the contents of the plate were mixed and then incubated in the dark for 1 hour at RT. The signal was recorded at TR-FRET mode (665 nm/615 nm). The results were graphed to calculate the EC50.
# Titration of ATP at the EC50 concentration of kinase to determine ATP Km, app. was performed using the following method. After making serial dilutions of ATP (Invitrogen), 5 μl of ATP dilution and 5 μl substrate/kinase mix were added to the wells of the white Optiplate-384 (PerkinElmer). The contents of the plate were and incubated at RT for 1 h. The reaction was stopped by adding 5 μl of stop solution to each test well followed by mixing and incubation at RT for 10 minutes. 5 μl of detection mix (detection antibody diluted in detection buffer) was added; the contents of the plate were mixed and then incubated in the dark for 1 hour at RT. The signal was recorded at TR-FRET mode (665 nm/615 nm). The results were graphed to calculate the EC50 as the ATP Km, app.
# Compound screening was done via the following method. 10 mM stock solution of test compound in DMSO was prepared by dissolving test compound in DMSO at RT for 1 hour, and then sonicating at 100% output for 8 minutes. If compound is not soluble under this condition, it was diluted to 3 mM. Kinase reaction buffer was prepared containing 10 mM MgCl2, 50 mM HEPES, 1 mM EGTA, 0.01% TWEEN-20, 2 mM DTT. Serial dilutions of the test compounds were prepared at 4×final assay concentrations using Freedom EVO200® dispensing system as follows: 12×10^−5 M, 4×10^−5 M, 1.33×10^−5 M, 4.44×10^−6 M, 1.48×10^−6 M, 4.92×10^−7 M, 1.65×10^−7 M, […], 1.82×10^−8M, 6.09×10^−9, 2.03×10^−9 M. Test compounds (2.5 μl at 4× the final assay concentration) was added to wells using Freedom EVO200® dispensing system. As a positive control, 2.5 μl of positive compound was added to assay wells, and 2.5 μl of DMSO to assay wells as vehicle control. Kinase solution was prepared in reaction buffer at 2×final assay concentration. Kinase solution (5 μl) was added to each well of the assay plate. The substrate and ATP solution was prepared in kinase reaction buffer at 4×final assay concentration. The kinase reaction was started by adding 2.5 μl of substrate+ATP mix solution to each well of the assay plate. The plate is mixed on a plate shaker; then covered and allowed to react for 2 hours in the dark at 25° C. without shaking. The reaction was stopped by adding 5 μl of stop solution to each test well followed by mixing and incubation at RT for 10 minutes in the dark. 5 μl of detection mix (detection antibody diluted in detection buffer) was added; the contents of the plate were mixed and then incubated in the dark for 1 hour at RT. The signal was recorded at TR-FRET mode (665 nm/615 nm).
# Sequence of PASK (Q96RG2 999-1251): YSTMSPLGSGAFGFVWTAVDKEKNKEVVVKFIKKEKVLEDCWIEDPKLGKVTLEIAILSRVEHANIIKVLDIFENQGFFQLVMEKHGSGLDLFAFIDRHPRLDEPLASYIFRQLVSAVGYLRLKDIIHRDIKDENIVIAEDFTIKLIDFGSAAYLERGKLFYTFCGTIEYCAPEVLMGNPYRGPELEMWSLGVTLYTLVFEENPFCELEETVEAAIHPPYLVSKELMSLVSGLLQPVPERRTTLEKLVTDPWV
row,SMILES,pIC50
1,"Cc1nn2c(=O)cc(-c3ccc(O)cc3)[nH]c2c1-c1ccccc1 [Example 80, 5-(4-Hydroxyphenyl)-2-methyl-3-phenylpyrazolo[1,5-a]pyrimidin-7(4H)-one]",≥ 5.00
2,"COc1ccc(-c2cnn3c(=O)cc(-c4ccc5c(c4)OCCO5)[nH]c23)cc1 [Example 82, 5-(2,3-Dihydrobenzo[b][1,4]dioxin-6-yl)-3-(4-methoxyphenyl)pyrazolo[1,5-a]pyrimidin-7(4H)-one]",≥ 5.00
3,"Cc1nn2c(=O)cc(-c3ccc4ncccc4c3)[nH]c2c1-c1ccc(F)cc1 [Example 83, 3-(4-Fluorophenyl)-2-methyl-5-(quinolin-6-yl)pyrazolo[1,5-a]pyrimidin-7(4H)-one]",≥ 5.00
4,"COc1ccc(-c2c(C)nn3c(=O)cc(-c4ccc5ncccc5c4)[nH]c23)cc1 [Example 84, 3-(4-Methoxyphenyl)-2-methyl-5-(quinolin-6-yl)pyrazolo[1,5-a]pyrimidin-7(4H)-one]",≥ 5.00
5,"COc1ccc(-c2c(C)nn3c(=O)cc(-c4ccc5c(c4)OCCO5)[nH]c23)cc1 [Example 85, 5-(2,3-Dihydrobenzo[b][1,4]dioxin-6-yl)-3-(4-methoxyphenyl)-2-methylpyrazolo[1,5-a]pyrimidin-7(4H)-one]",≥ 5.00
6,"O=c1cc(-c2ccc3c(c2)OCCO3)[nH]c2c(-c3ccc(F)cc3)cnn12 [Example 86, 5-(2,3-Dihydrobenzo[b][1,4]dioxin-6-yl)-3-(4-fluorophenyl)pyrazolo[1,5-a]pyrimidin-7(4H)-one]",≥ 5.00
7,"Cc1nn2c(=O)cc(-c3ccc4[nH]ccc4c3)[nH]c2c1-c1ccccc1 [Example 87, 5-(1H-Indol-5-yl)-2-methyl-3-phenylpyrazolo[1,5-a]pyrimidin-7(4H)-one]",≥ 5.00
8,"O=c1cc(-c2ccccc2)[nH]c2c(-c3ccc(N4CCCCC4)nc3)cnn12 [Example 88, 5-Phenyl-3-(6-(piperidin-1-yl)pyridin-3-yl)pyrazolo[1,5-a]pyrimidin-7(4H)-one]",≤ 5.00
9,"O=c1cc(-c2ccc3c(c2)OCCO3)[nH]c2c(-c3cccc(Cl)c3)cnn12 [Example 90, 3-(3-Chlorophenyl)-5-(2,3-dihydrobenzo[b][1,4]dioxin-6-yl)pyrazolo[1,5-a]pyrimidin-7(4H)-one]",≥ 5.00
10,"O=c1cc(-c2ccc3c(c2)OCCO3)[nH]c2c(-c3ccc(Br)cc3)cnn12 [Example 104, 3-(4-Bromophenyl)-5-(2,3-dihydrobenzo[b][1,4]dioxin-6-yl)pyrazolo[1,5-a]pyrimidin-7(4H)-one]",≥ 5.00
11,"O=c1cc(-c2ccccc2)[nH]c2c(-c3ccc(O)nc3)cnn12 [Example 105, 3-(6-Hydroxypyridin-3-yl)-5-phenylpyrazolo[1,5-a]pyrimidin-7(4H)-one]",≥ 5.00
12,"COc1ccc(-c2cnn3c(=O)cc(-c4ccccc4)[nH]c23)cn1 [Example 112, 3-(6-Methoxypyridin-3-yl)-5-phenylpyrazolo[1,5-a]pyrimidin-7(4H)-one]",≥ 5.00
13,"O=C(O)c1cnn2c(=O)cc(-c3ccc4c(c3)OCCO4)[nH]c12 [Example 115, 5-(2,3-Dihydrobenzo[b][1,4]dioxin-6-yl)-7-oxo-4,7-dihydropyrazolo[1,5-a]pyrimidine-3-carboxylic acid]",≥ 5.00
14,"O=c1cc(-c2ccc3c(c2)OCCO3)[nH]c2c(-c3ccc(N4CCOCC4)nc3)cnn12 [Example 118, 5-(2,3-Dihydrobenzo[b][1,4]dioxin-6-yl)-3-(6-morpholinopyridin-3-yl)pyrazolo[1,5-a]pyrimidin-7(4H)-one]",≥ 5.00
15,"O=c1cc(-c2ccc(Cl)cc2Cl)[nH]c2c(-c3ccccn3)cnn12 [Example 124, 5-(2,4-Dichlorophenyl)-3-(pyridin-2-yl)pyrazolo[1,5-a]pyrimidin-7(4H)-one]",≥ 5.00
16,"O=c1cc(-c2ccc(Cl)cc2)[nH]c2c(Cc3ccccc3)cnn12 [Example 132, 3-benzyl-5-(4-chlorophenyl)pyrazolo[1,5-a]pyrimidin-7(411)-one]",≥ 5.00

row,SMILES,pIC50
1,"CCCc1cnn2c(=O)cc(-c3ccc4c(c3)OCO4)[nH]c12 [Example 134, 5-(Benzo[d][1,3]dioxol-5-yl)-3-propylpyrazolo[1,5-a]pyrimidin-7(4H)-one]",≥ 5.00
2,"COc1cc(Cl)ccc1-c1cc(=O)n2ncc(-c3ccccn3)c2[nH]1 [Example 136, 5-(4-Chloro-2-methoxyphenyl)-3-(pyridin-2-yl)pyrazolo[1,5-a]pyrimidin-7(4H)-one]",≥ 5.00
3,"COc1nn2c(=O)cc(-c3ccc(Cl)cc3)[nH]c2c1C#N [Example 138, 5-(4-Chlorophenyl)-2-methoxy-7-oxo-4,7-dihydropyrazolo[1,5-a]pyrimidine-3-carbonitrile]",≥ 5.00
4,"N#Cc1c(O)nn2c(=O)cc(-c3ccc(Cl)cc3)[nH]c12 [Example 139, 5-(4-Chlorophenyl)-2-hydroxy-7-oxo-4,7-dihydropyrazolo[1,5-a]pyrimidine-3-carbonitrile]",≥ 5.00
5,"CS(=O)(=O)c1ccc(-c2cc(=O)n3ncc(-c4ccccn4)c3[nH]2)cc1 [Example 140, 5-(4-(Methylsulfonyl)phenyl)-3-(pyridin-2-yl)pyrazolo[1,5-a]pyrimidin-7(4H)-one]",≥ 5.00
6,"O=C(c1cnn2c(=O)cc(-c3ccc4c(c3)OCCO4)[nH]c12)N1CCCC1 [Example 146, 5-(2,3-Dihydrobenzo[b][1,4]dioxin-6-yl)-3-(pyrrolidine-1-carbonyl)pyrazolo[1,5-a]pyrimidin-7(4H)-one]",≥ 5.00
7,"Nc1nn2c(=O)cc(-c3cc4ccccc4o3)[nH]c2c1-c1ccccn1 [Example 151, 2-Amino-5-(benzofuran-2-yl)-3-(pyridin-2-yl)pyrazolo[1,5-a]pyrimidin-7(4H)-one]",≥ 5.00
8,"Nc1nn2c(=O)cc(-c3ccc(Cl)c(Cl)c3)[nH]c2c1-c1ccccn1 [Example 153, 2-Amino-5-(3,4-dichlorophenyl)-3-(pyridin-2-yl)pyrazolo[1,5-a]pyrimidin-7(4H)-one]",≥ 5.00
9,"O=c1cc(-c2ccccc2)[nH]c2c(-c3cccnc3)c(O)nn12 [Example 154, 2-Hydroxy-5-phenyl-3-(pyridin-3-yl)pyrazolo[1,5-a]pyrimidin-7(4H)-one]",≥ 5.00
10,"COc1nn2c(=O)cc(-c3ccc4c(c3)OCO4)[nH]c2c1-c1ccccn1 [Example 157, 5-(Benzo[d][1,3]dioxol-5-yl)-2-methoxy-3-(pyridin-2-yl)pyrazolo[1,5-a]pyrimidin-7(4H)-one]",≥ 5.00
11,"O=c1cc(-c2ccc(Cl)cc2F)[nH]c2c(-c3ccccn3)cnn12 [Example 162, 5-(4-Chloro-2-fluorophenyl)-3-(pyridin-2-yl)pyrazolo[1,5-a]pyrimidin-7(4H)-one]",≥ 5.00
12,"Nc1nn2c(=O)cc(-c3ccc4occc4c3)[nH]c2c1-c1ccccn1 [Example 165, 2-Amino-5-(benzofuran-5-yl)-3-(pyridin-2-yl)pyrazolo[1,5-a]pyrimidin-7(4H)-one]",≥ 5.00
13,"Cc1coc2ccc(-c3cc(=O)n4nc(N)c(-c5ccccn5)c4[nH]3)cc12 [Example 166, 2-Amino-5-(3-methylbenzofuran-5-yl)-3-(pyridin-2-yl)pyrazolo[1,5-a]pyrimidin-7(4H)-one]",≥ 5.00
14,"Cc1coc2ccc(-c3cc(=O)n4ncc(-c5ccccn5)c4[nH]3)cc12 [Example 167, 5-(3-Methylbenzofuran-5-yl)-3-(pyridin-2-yl)pyrazolo[1,5-a]pyrimidin-7(4H)-one]",≥ 5.00
15,"Cc1coc2ccc(-c3cc(=O)n4nc(O)c(-c5ccccn5)c4[nH]3)cc12 [Example 168, 2-Hydroxy-5-(3-methylbenzofuran-5-yl)-3-(pyridin-2-yl)pyrazolo[1,5-a]pyrimidin-7(4H)-one]",≥ 5.00
